In brackets after ≈: the same amount, converted by molar mass.
Experiment: Solubility in water
Type: physicochemical
Settings: at room temperature, read-out: Löslichkeit in Wasser

O=C(O)C(Nc1nc(NC(C(=O)O)n2cncn2)nc(NC(C(=O)O)n2cncn2)n1)n1cncn1 (stereo not shown) [Beispiel 25]
solubility: 50 mg/mL (≈ 99.7 mM)

Reference: EP0682022B1, “Condensation products of melamine, benzotriazoles and aldehydes” (Ciba Specialty Chemicals Holding Inc., priority 1994, dated 1995)
